# Assay results as given in publication PMC3383625 (Chemistry & biology, 2012).
# Where “and” joins values, the source holds several entries; their conditions need not be identical. Equal entries are not always repeated. Where two headings read alike, the source gives them in different places. rhodamine = not defined here
# T1: binding of MBP-p22-C and GST-p47-bis-SH3 (Homo sapiens, UniProt P14598)
# T1 sequence (P14598 156-285): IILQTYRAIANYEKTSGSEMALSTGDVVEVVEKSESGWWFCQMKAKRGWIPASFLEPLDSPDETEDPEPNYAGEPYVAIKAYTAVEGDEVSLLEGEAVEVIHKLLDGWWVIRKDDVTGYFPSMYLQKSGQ
# T2: bis-SH3 domain of p47phox (binding of the PRD of p22phox) (Homo sapiens, UniProt P14598)
# T2 sequence (P14598 156-285): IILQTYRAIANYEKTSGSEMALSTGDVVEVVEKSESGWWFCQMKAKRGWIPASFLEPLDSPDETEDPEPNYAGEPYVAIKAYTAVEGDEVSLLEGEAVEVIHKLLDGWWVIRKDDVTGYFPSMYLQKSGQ
# T3: p67phox-p47phox association (Homo sapiens, UniProt P14598)
# T3 sequence (P14598 1-390): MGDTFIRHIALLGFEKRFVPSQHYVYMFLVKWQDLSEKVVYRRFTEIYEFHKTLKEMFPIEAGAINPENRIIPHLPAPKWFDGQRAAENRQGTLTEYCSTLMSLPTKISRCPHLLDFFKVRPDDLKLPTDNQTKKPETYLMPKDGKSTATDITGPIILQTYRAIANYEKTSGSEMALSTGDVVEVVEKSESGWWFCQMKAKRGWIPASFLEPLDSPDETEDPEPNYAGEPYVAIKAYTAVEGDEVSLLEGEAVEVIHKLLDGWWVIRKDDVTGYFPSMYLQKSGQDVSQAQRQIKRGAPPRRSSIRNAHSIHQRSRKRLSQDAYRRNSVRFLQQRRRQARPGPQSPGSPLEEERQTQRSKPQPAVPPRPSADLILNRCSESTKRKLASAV
# T4: Nox4 (Homo sapiens, UniProt Q9NPH5)
# T4 sequence (Q9NPH5 1-578): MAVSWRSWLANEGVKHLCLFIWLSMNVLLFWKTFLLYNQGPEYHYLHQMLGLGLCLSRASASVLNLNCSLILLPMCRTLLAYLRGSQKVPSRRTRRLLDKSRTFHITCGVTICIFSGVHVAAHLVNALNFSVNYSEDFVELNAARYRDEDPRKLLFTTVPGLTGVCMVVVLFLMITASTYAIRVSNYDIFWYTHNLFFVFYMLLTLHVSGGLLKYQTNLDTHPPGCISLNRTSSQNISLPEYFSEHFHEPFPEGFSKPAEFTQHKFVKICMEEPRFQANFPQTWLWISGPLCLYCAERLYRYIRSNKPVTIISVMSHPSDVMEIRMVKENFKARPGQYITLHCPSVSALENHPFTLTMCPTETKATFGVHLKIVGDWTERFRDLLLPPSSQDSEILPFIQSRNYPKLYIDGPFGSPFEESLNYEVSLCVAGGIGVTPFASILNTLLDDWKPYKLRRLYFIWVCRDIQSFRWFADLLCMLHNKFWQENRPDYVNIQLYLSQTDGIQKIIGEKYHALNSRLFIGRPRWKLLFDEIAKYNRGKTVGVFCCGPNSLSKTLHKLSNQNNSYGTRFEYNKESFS
# T4 sequence (P13498 2-195 partner limits assumed): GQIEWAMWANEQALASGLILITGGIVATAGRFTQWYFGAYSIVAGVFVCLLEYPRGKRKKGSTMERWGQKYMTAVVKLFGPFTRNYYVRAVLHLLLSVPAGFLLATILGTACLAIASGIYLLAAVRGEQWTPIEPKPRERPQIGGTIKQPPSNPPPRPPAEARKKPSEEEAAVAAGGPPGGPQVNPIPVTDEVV
# T5: GST-tagged p47phox-bis-SH3 domain (GST-p47-bis-SH3) (human, UniProt P14598 156-285)
# T5 sequence (looked up): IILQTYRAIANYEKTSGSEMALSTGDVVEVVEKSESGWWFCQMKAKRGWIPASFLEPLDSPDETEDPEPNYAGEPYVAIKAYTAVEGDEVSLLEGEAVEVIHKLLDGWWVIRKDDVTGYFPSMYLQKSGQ
# Legend:
# Nox2 [1] = molecular target: T6, Nox2 (Homo sapiens, UniProt P04839); test: Cell-free assay for Nox2-dependent superoxide generation; format: biochemical
# Target sequence in this assay (P04839 2-570 limits assumed, one chain of several): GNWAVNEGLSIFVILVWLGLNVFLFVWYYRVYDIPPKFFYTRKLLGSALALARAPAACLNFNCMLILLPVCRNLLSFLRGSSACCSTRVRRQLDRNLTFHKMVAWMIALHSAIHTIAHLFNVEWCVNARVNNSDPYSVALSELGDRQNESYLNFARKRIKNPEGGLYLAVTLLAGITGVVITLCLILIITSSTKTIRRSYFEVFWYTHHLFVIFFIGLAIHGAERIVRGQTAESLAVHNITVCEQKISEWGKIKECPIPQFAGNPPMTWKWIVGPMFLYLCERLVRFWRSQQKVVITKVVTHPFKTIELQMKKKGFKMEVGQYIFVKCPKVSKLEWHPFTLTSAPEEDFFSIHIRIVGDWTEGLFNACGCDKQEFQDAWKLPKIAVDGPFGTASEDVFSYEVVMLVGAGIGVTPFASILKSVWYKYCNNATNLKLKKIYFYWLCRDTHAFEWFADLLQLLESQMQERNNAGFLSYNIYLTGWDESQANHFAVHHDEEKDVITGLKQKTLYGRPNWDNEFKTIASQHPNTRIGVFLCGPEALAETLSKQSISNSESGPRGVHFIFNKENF
# Nox2 [2] = molecular target: T6, Nox2; test: Nox2 activity in intact PMA-stimulated neutrophils; format: cell-based
# Target sequence in this assay (P04839 2-570 limits assumed, one chain of several): as above
# Kupffer cells = details: read-out: IC50 for reactive oxygen by luminol luminescence; ref Wang et al.,1992; cited from earlier work
# [3] = molecular target: T1, binding of MBP-p22-C and GST-p47-bis-SH3; test: Pull-down assay of MBP-p22-C with GST-p47-bis-SH3 on glutathione agarose beads; details: 20 μM ebselen
# [4] = ref Muller et al.,1984; cited from earlier work
# [5] = system: protein-kinase-C-mediated phosphorylation of p47phox; test: PKC-mediated phosphorylation of p47phox in neutrophils; format: cell-based, human; details: 10 μM ebselen
# [6] = molecular target: T2, bis-SH3 domain of p47phox (binding of the PRD of p22phox); test: Fluorescence polarization
# PKC = details: ref Cotgreave et al.,1989; cited from earlier work
# [7] = molecular target: T3, p67phox-p47phox association; test: Co-immunoprecipitation of p67phox with p47phox in PMA-stimulated neutrophils; format: cell-based; details: 10 μM ebselen, PMA-stimulated cells
# [8] = system: guinea pig alveolar macrophages; details: read-out: IC50 for inhibition in guinea pig macrophages; ref Leurs et al.,1989; cited from earlier work
# [9] = system: p47phox and p67phox translocation in neutrophils; format: cell-based, human; details: 10 μM ebselen
# Nox1 = Nox1 (Homo sapiens, UniProt Q9Y5S8); test: Nox1 activity in whole cells
# Nox4 = molecular target: T4, Nox4; test: Nox4 activity in whole cells; format: cell-based; details: read-out: EC50 for inhibition of Nox4 activity in whole cell assay; HEK/Nox4rb cells; ns = no significant inhibition
# [10] = molecular target: T5, GST-tagged p47phox-bis-SH3 domain …; test: fluorescence polarisation
# [11] = comparator as named in text (parent Thr101 or fluoro-derivative j)
# Sequence of Nox1 (Q8NFA2 whole entry partner): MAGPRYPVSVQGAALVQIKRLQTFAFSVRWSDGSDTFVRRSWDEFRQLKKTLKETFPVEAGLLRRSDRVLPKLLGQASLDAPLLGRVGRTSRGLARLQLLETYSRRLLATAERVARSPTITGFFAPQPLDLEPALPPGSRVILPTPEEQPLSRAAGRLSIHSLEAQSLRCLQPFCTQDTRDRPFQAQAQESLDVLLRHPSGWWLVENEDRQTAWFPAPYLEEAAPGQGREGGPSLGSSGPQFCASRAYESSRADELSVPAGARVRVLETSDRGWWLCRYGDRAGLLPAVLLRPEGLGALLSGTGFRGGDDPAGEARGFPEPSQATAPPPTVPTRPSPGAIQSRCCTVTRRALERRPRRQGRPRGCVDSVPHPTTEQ
# Sequence of Nox1 (Q9Y5S8 whole entry): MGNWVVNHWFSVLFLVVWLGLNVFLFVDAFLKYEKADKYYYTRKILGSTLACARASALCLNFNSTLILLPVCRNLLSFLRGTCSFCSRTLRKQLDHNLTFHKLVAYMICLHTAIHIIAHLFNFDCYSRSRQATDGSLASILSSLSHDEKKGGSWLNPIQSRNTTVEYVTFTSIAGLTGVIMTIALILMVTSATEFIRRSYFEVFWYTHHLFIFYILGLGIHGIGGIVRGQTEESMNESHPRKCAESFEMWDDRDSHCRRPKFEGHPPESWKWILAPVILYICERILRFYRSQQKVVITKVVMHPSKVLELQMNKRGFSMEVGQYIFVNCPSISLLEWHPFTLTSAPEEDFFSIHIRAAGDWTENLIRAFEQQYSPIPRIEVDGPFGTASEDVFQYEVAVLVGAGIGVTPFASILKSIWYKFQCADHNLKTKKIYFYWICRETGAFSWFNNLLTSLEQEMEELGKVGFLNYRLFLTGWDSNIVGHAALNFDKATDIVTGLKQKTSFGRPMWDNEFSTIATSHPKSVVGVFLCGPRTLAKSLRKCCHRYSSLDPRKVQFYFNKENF
molecule,measurement,setting,value
"c1ccc2c(c1)[I+]c1ccccc1-2 [DPI, diphenylene iodonium]",Luminescence relative to incubations containing DMSO vehicle alone,"Nox2 [1]; cell-free Nox2 assay, data not shown",less than 10%
same,Luminescence relative to DMSO-treated cells,"Nox2 [2]; neutrophils, 10 uM DPI, data not shown",less than 10%
O=c1c2ccccc2[se]n1-c1ccccc1 [Ebselen],IC50,Kupffer cells,~1000 nM
same,Inhibition of binding of MBP-p22-C and GST-p47-bis-SH3 in pulldown,[3],markedly inhibited
same,Optimum concentration needed to catalyze H2O2 peroxidase activity,[4],about 20 μM
same,Effect on protein-kinase-C-mediated phosphorylation of p47phox or other neutrophil proteins (words),[5],did not affect
same,Effect on protein-kinase-C-mediated phosphorylation of p47phox or other neutrophil proteins (words),[5]; listed as ebselen,does not inhibit PKC phosphorylation
same,IC50 in the FP binding assay,"[6]; rho-PRD plus GST-p47-bis-SH3, 1% DMSO",submicromolar
same,Concentration inhibiting purified PKC enzyme,PKC,submicromolar
same,Effect on co-immunoprecipitation of p67phox with p47phox (words),[7],did affect the ability of p67phox to coimmunoprecipitate with p47phox
same,Effect on co-immunoprecipitation of p67phox with p47phox (words),[7]; listed as ebselen,diminishes the co-immunoprecipitation
same,IC50,[8],~20000 nM
same,Effect on PMA-stimulated translocation of p47phox and p67phox,[9]; 500 nM PMA,completely blocked
same,Effect on translocation in the absence of PMA,[9]; no PMA,no effect on translocation
same,EC50,Nox1,150 nM
O=c1c2ccccc2sn1-c1ccccc1 [Thr101],IC50,"[6]; read-out: IC50 in the FP binding assay, rho-PRD plus GST-p47-bis-SH3, 1% DMSO",4000 nM and ~4000 nM
same,EC50,Nox4,8000 nM
same,IC50,"Nox2 [1]; read-out: IC50 in the cell-free Nox2 activity assay, neutrophil membranes, 1% DMSO",4000 nM and ~4000 nM
same,EC50,"Nox1; read-out: EC50 for inhibition of Nox1 activity in whole cell assay, HEK/Nox1rb cells, ns = no significant inhibition",3000 nM
same,EC50,"Nox2 [2]; read-out: EC50 for inhibition of Nox2 activity in whole cell assay, human neutrophils, ns = no significant inhibition",300 nM
COC(=O)c1ccc(-n2sc3ccccc3c2=O)cc1 [l],Fold improvement in binding versus comparator compound,[6]; [11],~ 10 fold
same,IC50,"[6]; read-out: Potency in the binding assay, FP assay",500 nM
same,Fold improvement in activity versus comparator compound,Nox2 [1]; [11],~ 10 fold
rhodamine-PPTNPPPRPPAE-NH2 (reading uncertain) [rhodamine-labeled peptide corresponding to the PRD of p22phox (rho-PRD)],Kd,[10],20 to 40 nM and 20 nM
